Assay results: patent US20110173718A1, “HERBICIDE TOLERANT PLANTS” (SYNGENTA CROP PROTECTION, INC., priority 2008, published 2011)

How the values were obtained:
Chlamydomonas HST = target: T1, Chlamydomonas HST (Chlamydomonas reinhardtii, UniProt A1JHN0); experiment: HST assay (TLC, MFBQ formed), recombinant Chlamydomonas HST in E. coli membranes; type: biochemical; details: TLC, estimated amount of MFBQ formed, relative to controls
T1 construct: GST (N); made in house; host or cells: E. coli (BL21A1 / BL21DE3), membrane fraction
T1 sequence (A1JHN0 51-370): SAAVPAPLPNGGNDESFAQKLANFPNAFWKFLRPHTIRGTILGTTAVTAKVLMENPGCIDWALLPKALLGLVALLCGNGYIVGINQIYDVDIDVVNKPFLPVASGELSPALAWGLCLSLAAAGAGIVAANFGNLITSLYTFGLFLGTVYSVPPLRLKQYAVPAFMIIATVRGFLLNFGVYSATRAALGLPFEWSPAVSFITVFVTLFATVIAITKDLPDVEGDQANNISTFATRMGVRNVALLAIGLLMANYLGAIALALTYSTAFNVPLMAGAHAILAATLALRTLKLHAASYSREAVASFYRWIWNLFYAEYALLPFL
Description: Alternatively, Arabidopsis and Chlamydomonas mature HST coding sequences are cloned as GST N-terminal fusion enzymes and expressed in E. coli.
E. coli. BL21A1 cells expressing mature Arabidopsis or Chlamydonionas HST as a GST N-terminal fusion proteins are grown, harvested, broken and membrane fractions expressing HST produced.
For example, 1 ng of recombinant DNA is used to transform BL21DE3 cells to obtain a plateful of individual colonies. One of these colonies is picked and used to inoculate an overnight culture of 100 ml of Luria Broth (LB) supplemented with 50 ug/ml of kanamycin at final concentration, grown at 37° C. with shaking at 220 rpm. Next morning, 10 mls of the overnight culture is used to inoculate 11 of fresh sterile LB supplemented with 50 ug/ml of kanamycin at final concentration, grown at 37° C. with shaking at 220 rpm until the OD reached 0.6 at 600 nm, induced with the addition of 0.1 mM IPTG and left to induce at 15° C. overnight. The cells are harvested by centrifugation at 4600 rpm for 10 min at 4° C. and the pellet stored at −80° C. […] E. coli cell pellet is then resuspended in 25 ml of 50 mM Tris, pH 7.5 supplemented with Roche EDTA-free protease inhibitor tablet (one tablet in 200 mls of buffer). 10 ml of cells are lysed by sonication on ice. The resultant lysed cells are centrifuged at 3000 g for 10 min to pellet the cell nuclei/debris etc. 10 mls of supernatant is aspirated and centrifuged at 150,000 g for 60 min at 4° C. The pellet containing the membranes is resuspended in 2 ml of the above buffer. These samples are stored as 100 ul aliquots at −80° C., after being diluted with addition of glycerol to 50% v/v.
Prenyltransferase (HST) activities are measured by determining the prenylation rates of [U—^14C]homogentisate using farnesyl diphosphate (FDP) as prenyl donor. ^14C homogentisate is prepared from ^14C tyrosine using L amino acid oxidase and HPPD. For inhibitor testing, compounds are dissolved in dimethylsulfoxide (DMSO). DMSO added at up to 2% v/v has no effect on assays. Control assays contain DMSO at the same concentration as in inhibitor containing assays.
The recombinant Chlamydomonas HST expressed in E. coli membranes is assayed in standard reaction mixtures with 200 μM FDP and 100 μM ^14C-homogentisate (40 dpm/pmol) in 50 mM Tricine-NaOH pH 8.5, 20 mM MgCl2. Assays are started with the addition of enzyme and run for ˜20 min at 28° C.
Recombinant Arabidopsis and Rice HSTs are expressed in insect cells. Assays are run as for Chlamydomonas HST except that assay temperature is 27° C. Assays are stopped with 300 ul of solvent mix (1:2, Chloroform:Methanol) and 100 ul of 0.5% NaCl, agitated/mixed and spun at 13,000 rpm in a benchtop eppendorf centrifuge for 5 minutes. 80 ul of the lower phase extract is loaded onto a TLC plate (silica Gel 60, 20 cm×20 cm) FLA3000 system and run for 35 minutes in dichloromethane. The radioactivity is quantified using a Fuji Phosphoimager and band intensity integrated as quantitative measure of product amount. The bands corresponding to oxidised and reduced 2-methyl-6-farnesyl-1,4-benzoquinol (MFBQ) are identified and the total of the two (oxidised and reduced) band intensities is calculated in order to estimate the total amount of MFBQ product formation. Specific activities of 8 pmol MFBQ min^−1 mg^−1 protein (23 pmol) and 7 pmol MFBQ min^−1 mg^−1 protein (14 pmol) are, for example, estimated for the GST-fusion truncated Arabidopsis HST gene (SEQ ID # 3) expressed in membranes from insect cells 4 days and 5 days after transfection respectively. Similar results are noted from past literature on E. coli expressed Arabidopsis HST. Activity from the insect cell expressed GST-fusion truncated rice HST (SEQ ID# 4) is similar. Expression of the non-truncated HST coding sequences as GST fusions also gives HST activity. […]

[1] = tested on: wild-type (WT) Samsun tobacco; experiment: Glasshouse spray test, wild-type tobacco; type: in vivo; details: 500 g/ha; 14 DAT; WT control, reps
Description: Rooted transgenic T0 plantlets are transferred from agar and potted into 50% peat, 50% John Innes soil no 3 or, for example, MetroMix® 380 soil (Sun Gro Horticulture, Bellevue, Wash.) with slow-release fertilizer in 3 inch round or 4 inch square pots and left regularly watered to establish for 8-12 d in the glass house. Glass house conditions are about 24-27° C. day; 18-21° C. night and approximately a 14 h (or longer in UK summer) photoperiod. Humidity is ˜65% and light levels up to 2000 μmol/m^2 at bench level. Once new tissue emerges and plants they have reached the 2-4 leaf stage some of the clones from each event are sprayed with test chemicals dissolved in water with 0.2-0.25% X-77 surfactant and sprayed from a boom on a suitable track sprayer moving at 2 mph in a DeVries spray chamber with the nozzle about 2 inches from the plant tops. Spray volume is suitably 25 gallons per acre or, for example, […].
Test chemicals are, for example, compound 2.3 at 500 g/ha. At the same time that transgenic plants are sprayed so too are w/t Samsun tobacco plants grown from seed as well as non-transgenic plants regenerated from tissue culture and non-transgenic tissue culture escapes. Damage is assessed versus unsprayed control plants of like size and development.
6 Seed from w/t Samsun tobacco and 8 T1 seed from events B8 and G9 are also planted out in 3 inch pots, grown on for 7 to 12 d and then, as described in the foregoing examples, the plantlets spray tested for resistance to various chemicals and assessed at 14 DAT. Chemicals are formulated in 0.2% X77 and sprayed at a spray volume of 200 l/ha.
Seed of wild-type tobacco plants, C2 tobacco plants and of the T1 progeny of a further Arabidopsis-HST expressing tobacco line, D2 were planted out in 3 inch pots, grown on, sprayed with compounds 1.1, 2.30 and 3.6 at the rates shown in table 5. Percent damage scores were assessed at 7 DAT. Aside from the presumptive non-transgenic segregants the D2 line containing the Arabidopis HST expression construct offered the highest level of tolerance to the two HST herbicides with the Psuedomonas HPPD, C2 line, offering only marginal tolerance under the conditions of this test.
Single copy events amongst the T1 plant lines are identified by their 3:1 segregation ratio (wrt kanamycin and or herbicide) and by quantitative RT-PCR. Seed from the thus selected T1 tobacco (var Samsun) lines are sown in 3 inch diameter pots containing 50% peat, 50% John Innes soil no 3. After growth to the 3 leaf stage, plants are sprayed, as described above, in order to test for herbicide tolerance relative to like-treated non-transgenic tobacco plants.
Control tobacco plants and transgenic T1 plants expressing either the Pseudomonas or the wheat HPPD gene are sprayed at 37, 111, 333 and 1000 g/ha rates of HST inhibitors and, for example, compound 2.3.
Plants are assessed and scored for % damage at 16 DAT.

[2] = tested on: Arabidopsis HST transgenic tobacco plants; experiment: Glasshouse spray test, Arabidopsis HST transgenic tobacco; type: in vivo; details: 500 g/ha, 14 DAT
Source text: For example the Arabidopsis HST SEQ ID # 11 is cloned behind a double 35s CMV promoter sequence and a TMV translational enhancer sequence and in front of the 3′ terminator from the nos gene. This expression cassette is ligated into pMJB1 (described in WO98/20144) and then into pBIN19 and then transformed into Agrobacterium tuniqfaciens strains LBA4404 prior to plant transformation.
For example, the full length Arabidopsis HST seq ID # 11 is fused to the TMV translational enhancer sequence (SEQ ID #33) by overlapping PCR and, at the same time, 5′ XhoI site and a 3′KpnI site are added by PCR. Site-directed mutagenesis is performed to remove an internal XhoI site. The TMV/HPPD fusion is removed from the pBIN19 by digestion with XhoI/KpnI and is replaced by the TMV/HST fusion (SEQ ID #34). The TMV/HST fusion is now cloned behind a double 35s promoter and in front of the 3′ terminator from the nos gene. Again the modified pBIN19 vector (‘pBinAT HST’) is then transformed into Agrobacterium tumefaciens strain LBA4404.
A master plate of Agrobacterium tumefaciens containing the binary vector pBinAT HST (described above) or analogous binary vector comprising a different HST is used to inoculate 10 ml LB containing 100 mg/1 Rifampicin plus 50 mg/1 Kanamycin using a single bacterial colony. This is incubated overnight at 28° C. shaking at 200 rpm. This entire overnight culture is used to inoculate a 50 ml volume of LA (plus antibiotics). Again this is cultured overnight at 28° C. shaking at 200 rpm. The Agrobacterium cells are pelleted by centrifuging at 3000 rpm for 15 minutes then resuspended in MS medium with 30 g/1 sucrose, pH 5.9 to an OD ([…])=0.6. This suspension is dispensed in 25 ml aliquots into petri dishes.
Clonal micro-propagated tobacco shoot cultures are used to excise young (not yet fully expanded) leaves. The mid rib and outer leaf margins are removed and discarded, the remaining lamina is cut into 1 cm squares. These are transferred to the Agrobacterium suspension for 20 minutes. Explants are then removed, dabbed on sterile filter paper to remove excess suspension then transferred to NBM medium (MS medium, 30 g/1 sucrose, 1 mg/1 BAP, 0.1 mg/1 NAA, pH 5.9, solidified with 8 g/1 Plantagar), with the abaxial surface of each explant in contact with the medium. Approximately 7 explants are transferred per plate, which are then sealed then maintained in a lit incubator at 25° C., 16 hour photoperiod for 3 days.
Explants are then transferred to NBM medium containing 100 mg/1 Kanamycin plus antibiotics to prevent further growth of Agrobacterium (200 mg/1 timentin with 250 mg/1 carbenicillin). Further subculture on to this same medium is then performed every 2 weeks.
As shoots start to regenerate from the callusing leaf explants these are removed to Shoot elongation medium (MS medium, 30 g/1 sucrose, 8 g/1 Plantagar, 100 mg/1 Kanamycin, 200 mg/1 timentin, 250 mg/1 carbenicillin, pH 5.9). Stable transgenic plants readily root within 2 weeks. To provide multiple plants per event to ultimately allow more than one herbicide test per transgenic plant all rooting shoots are micropropagated to generate 3 or more rooted clones.
Putative transgenic plants that are rooting and show vigorous shoot growth on the medium incorporating Kanamycin are analysed by PCR using primers that amplified a 500 bp fragment within the Arabidopsis HST transgene.
Rooted transgenic T0 plantlets are transferred from agar and potted into 50% peat, 50% John Innes soil no 3 or, for example, MetroMix® 380 soil (Sun Gro Horticulture, Bellevue, Wash.) with slow-release fertilizer in 3 inch round or 4 inch square pots and left regularly watered to establish for 8-12 d in the glass house. Glass house conditions are about 24-27° C. day; 18-21° C. night and approximately a 14 h (or longer in UK summer) photoperiod. Humidity is ˜65% and light levels up to 2000 μmol/m^2 at bench level. […]

Row | SMILES | Chlamydomonas. HST % I at 10 ppm (Chlamydomonas HST) [%] | Chlamydomonas. HST % I at 100 ppm (Chlamydomonas HST) [%] | herbicide % damage [1] [%] | herbicide % damage ([2]; T1 progeny of line B8, reps) [%] | herbicide % damage ([2]; T1 progeny of line G9-2, reps) [%]
1 | Nc1nc[nH]n1 [Amitrole, reference compound] | 0 | 0 |  |  | 
2 | Cc1cc(C)c(-c2c(O)c3nccnc3n(C)c2=O)c(C)c1 [Compound 2.2] | 70 | 95 |  |  | 
3 | O=c1[nH]c2nccnc2c(O)c1-c1c(F)ccc(F)c1Cl [Compound 2.7] | 5 | 20 |  |  | 
4 | O=c1[nH]c2nccnc2c(O)c1-c1c(F)ccc(Br)c1Cl [Compound 2.1] | 10 | 40 |  |  | 
5 | CN1CC(c2c(F)ccc(F)c2Cl)=C(O)c2ncccc21 [Compound 4.1] | 0 | 0 |  |  | 
6 | O=c1[nH]c2nccnc2c(O)c1-c1ccccc1OC(F)(F)F [Compound 2.6] | 5 | 20 |  |  | 
7 | CCNc1nc(Cl)nc(NC(C)C)n1 [Atrazine, reference compound] |  |  | 100 | 100 | 100
